Results as given in patent US9169254B2, “Spiroimidazolone derivative” (Chugai Seiyaku Kabushiki Kaisha, priority 2009, dated 2015).

The molecules below were run against T1, human PTH1 receptor (Homo sapiens, UniProt Q03431) (assay: In vitro cAMP signal activity in HKRK-B7 cells (LLC-PK1 cells overexpressing the human PTH1 receptor)). Settings: HKRK-B7 cells; compound at 1×10^−3 M; cAMP produced as percentage of that produced by hPTH(1-34) at 100 nM.
T1 sequence (Q03431 27-593): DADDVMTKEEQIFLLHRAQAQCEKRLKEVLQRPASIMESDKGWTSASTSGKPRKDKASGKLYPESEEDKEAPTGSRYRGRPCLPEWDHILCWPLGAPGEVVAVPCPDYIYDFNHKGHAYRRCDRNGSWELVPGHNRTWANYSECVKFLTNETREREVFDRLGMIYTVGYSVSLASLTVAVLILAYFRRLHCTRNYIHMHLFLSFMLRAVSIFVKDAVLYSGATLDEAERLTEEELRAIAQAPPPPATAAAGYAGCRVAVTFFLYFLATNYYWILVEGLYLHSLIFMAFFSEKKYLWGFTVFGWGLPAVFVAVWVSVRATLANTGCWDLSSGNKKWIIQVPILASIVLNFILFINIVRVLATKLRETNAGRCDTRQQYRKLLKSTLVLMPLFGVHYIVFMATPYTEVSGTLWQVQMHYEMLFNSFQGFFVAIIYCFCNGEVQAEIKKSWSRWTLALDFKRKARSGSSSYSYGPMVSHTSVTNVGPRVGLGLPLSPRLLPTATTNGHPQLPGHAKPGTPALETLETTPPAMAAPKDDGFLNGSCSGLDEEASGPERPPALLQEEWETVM
Assay type: cell-based

Question: For `Cc1cc(N2C(=O)CN(C)C2=O)ccc1CCS(=O)(=O)N1CCC2(CC1)N=C(C1CCC(C)CC1)NC2=O` (stereo not drawn) [Compound 862, 1-methyl-3-(3-methyl-4-{2-[2-(4-methyl-cyclohexyl)-4-oxo-1,3,8-triaza-spiro[4.5]dec-1-ene-8-sulfonyl]-ethyl}-phenyl)-imidazolidine-2,4-dione], which “cAMP production activity (%)” value is on record?
Answer: Its value is 55%.

Question: For `Cc1cc(N2C(=O)NC(C)(C)C2=O)ccc1CCS(=O)(=O)N1CCC2(CC1)N=C(C1CCC(C)CC1)NC2=O` (stereo not drawn) [Compound 863, 5,5-dimethyl-3-(3-methyl-4-{2-[2-(4-methyl-cyclohexyl)-4-oxo-1,3,8-triaza-spiro[4.5]dec-1-ene-8-sulfonyl]-ethyl}-phenyl)-imidazolidine-2,4-dione], which “cAMP production activity (%)” value is on record?
Answer: The value was 67%.

Question: `Cc1cc(N2C(=O)NC(C)(C)C2=O)ccc1CCS(=O)(=O)N1CCC2(CC1)N=C(C1CCC(CCC(F)(F)F)CC1)NC2=O` (stereo not drawn) [Compound 864, 5,5-dimethyl-3-[3-methyl-4-(2-{4-oxo-2-[4-(3,3,3-trifluoro-propyl)-cyclohexyl]-1,3,8-triaza-spiro[4.5]dec-1-ene-8-sulfonyl}-ethyl)-phenyl]-imidazolidine-2,4-dione] was tested. Which “cAMP production activity (%)” value did it give?
Answer: The value was 100%.

Question: How did the “cAMP production activity (%)” value turn out when `Cc1cc(N2CCOC2=O)ccc1CCS(=O)(=O)N1CCC2(CC1)N=C(C1CCC(C)CC1)NC2=O` (stereo not drawn) [Compound 865, 2-(4-methyl-cyclohexyl)-8-{2-[2-methyl-4-(2-oxo-oxazolidin-3-yl)-phenyl]-ethanesulfonyl}-1,3,8-triaza-spiro[4.5]dec-1-en-4-one] was run?
Answer: The value was 8.9%.

Question: For `Cc1cc(N2COCC2=O)ccc1CCS(=O)(=O)N1CCC2(CC1)N=C(C1CCC(C)CC1)NC2=O` (stereo not drawn) [Compound 866, 2-(4-methyl-cyclohexyl)-8-{2-[2-methyl-4-(4-oxo-oxazolidin-3-yl)-phenyl]-ethanesulfonyl}-1,3,8-triaza-spiro[4.5]dec-1-en-4-one], which “cAMP production activity (%)” value is on record?
Answer: Its value is 47%.

Question: How did the “cAMP production activity (%)” value turn out when `O=C1NC(C2CCC(CCC(F)(F)F)CC2)=NC12CCN(S(=O)(=O)CCc1cccc3c1ccn3C[C@@H](O)CO)CC2` (stereo partly drawn) [Compound 867, 8-{2-[1-((R)-2,3-dihydroxy-propyl)-1H-indol-4-yl]-ethanesulfonyl}-2-[4-(3,3,3-trifluoro-propyl)-cyclohexyl]-1,3,8-triaza-spiro[4.5]dec-1-en-4-one] was run?
Answer: Its value is 71%.

Question: Which “cAMP production activity (%)” value does the source give for `Cc1cc(N(C)c2ncc[nH]2)cc(C)c1CCS(=O)(=O)N1CCC2(CC1)N=C(C1CCC(C)CC1)NC2=O` (stereo not drawn) [Compound 868, 8-(2-{4-[(1H-imidazol-2-yl)-methyl-amino]-2,6-dimethyl-phenyl}-ethanesulfonyl)-2-(4-methyl-cyclohexyl)-1,3,8-triaza-spiro[4.5]dec-1-en-4-one] here?
Answer: Its value is 77%.

Question: Which “cAMP production activity (%)” value does the source give for `Cc1cc(N2C(=O)NC(C)(C)C2=O)cc(C)c1CCS(=O)(=O)N1CCC2(CC1)N=C(C1CCC(C)CC1)NC2=O` (stereo not drawn) [Compound 869, 3-(3,5-dimethyl-4-{2-[2-(4-methyl-cyclohexyl)-4-oxo-1,3,8-triaza-spiro[4.5]dec-1-ene-8-sulfonyl]-ethyl}-phenyl)-5,5-dimethyl-imidazolidine-2,4-dione] here?
Answer: The value was 65%.

Question: Which “cAMP production activity (%)” value does the source give for `Cc1cc(N2CCNCC2=O)ccc1CCS(=O)(=O)N1CCC2(CC1)N=C(C1CCC(C)CC1)NC2=O` (stereo not drawn) [Compound 870, 2-(4-methyl-cyclohexyl)-8-{2-[2-methyl-4-(2-oxo-piperazin-1-yl)-phenyl]-ethanesulfonyl}-1,3,8-triaza-spiro[4.5]dec-1-en-4-one] here?
Answer: The value was 63%.

Question: With `O=C1NC(C2CCCCC2)=NC12CCN(S(=O)(=O)CCc1ccc3c(ccn3C[C@H](O)CO)c1)CC2` [Compound 872, 2-cyclohexyl-8-{2-[1-((S)-2,3-dihydroxy-propyl)-1H-indol-5-yl]-ethanesulfonyl}-1,3,8-triaza-spiro[4.5]dec-1-en-4-one] as the molecule, how does the “cAMP production activity (%)” value read?
Answer: Its value is 109%.

Question: With `CC(=O)N(CCO)c1cc(C)c(CCS(=O)(=O)N2CCC3(CC2)N=C(c2cccc(OC(F)(F)F)c2)NC3=O)cc1F` [Compound 873, N-(2-fluoro-5-methyl-4-{2-[4-oxo-2-(3-trifluoromethoxy-phenyl)-1,3,8-triaza-spiro[4.5]dec-1-ene-8-sulfonyl]-ethyl}-phenyl)-N-(2-hydroxy-ethyl)-acetamide] as the molecule, how does the “cAMP production activity (%)” value read?
Answer: The value was 77%.

Question: Which “cAMP production activity (%)” value does the source give for `Cc1cc(NS(N)(=O)=O)ccc1CCS(=O)(=O)N1CCC2(CC1)N=C(c1cccc(OC(F)(F)F)c1)NC2=O` [Compound 874, N-(3-methyl-4-{2-[4-oxo-2-(3-trifluoromethoxy-phenyl)-1,3,8-triaza-spiro[4.5]dec-1-ene-8-sulfonyl]-ethyl}-phenyl)-sulfamide] here?
Answer: Its value is 61%.

Question: `Cc1cc(NS(=O)(=O)NCCCO)ccc1CCS(=O)(=O)N1CCC2(CC1)N=C(c1cccc(OC(F)(F)F)c1)NC2=O` [Compound 875, N-(3-hydroxy-propyl)-N′-(3-methyl-4-{2-[4-oxo-2-(3-trifluoromethoxy-phenyl)-1,3,8-triaza-spiro[4.5]dec-1-ene-8-sulfonyl]-ethyl}-phenyl)-sulfamide] was tested. Which “cAMP production activity (%)” value did it give?
Answer: The value was 65%.

Question: `Cc1cc(N(CC#N)C(N)=O)ccc1CCS(=O)(=O)N1CCC2(CC1)N=C(c1cccc(OC(F)(F)F)c1)NC2=O` [Compound 876, 1-cyanomethyl-1-(3-methyl-4-{2-[4-oxo-2-(3-trifluoromethoxy-phenyl)-1,3,8-triaza-spiro[4.5]dec-1-ene-8-sulfonyl]-ethyl}-phenyl)-urea] was tested. Which “cAMP production activity (%)” value did it give?
Answer: The value was 22%.

Question: Which “cAMP production activity (%)” value does the source give for `Cc1cc(N(CC(F)(F)F)C(N)=O)ccc1CCS(=O)(=O)N1CCC2(CC1)N=C(c1cccc(OC(F)(F)F)c1)NC2=O` [Compound 877, 1-(3-methyl-4-{2-[4-oxo-2-(3-trifluoromethoxy-phenyl)-1,3,8-triaza-spiro[4.5]dec-1-ene-8-sulfonyl]-ethyl}-phenyl)-1-(2,2,2-trifluoro-ethyl)-urea] here?
Answer: The value was 35%.

Question: How did the “cAMP production activity (%)” value turn out when `CC[C@H]1CC[C@H](C2=NC3(CCN(S(=O)(=O)CCc4ccc(N5CC(=O)NC5=O)cc4C)CC3)C(=O)N2)CC1` [Compound 878, 1-(4-{2-[2-(4-ethyl-cyclohexyl)-4-oxo-1,3,8-triaza-spiro[4.5]dec-1-ene-8-sulfonyl]-ethyl}-3-methyl-phenyl)-imidazolidine-2,4-dione] was run?
Answer: The value was 25%.

Question: Which “cAMP production activity (%)” value does the source give for `CC[C@H]1CC[C@H](C2=NC3(CCN(S(=O)(=O)CCc4ccc(N5C(=O)NC(=O)C5C)cc4C)CC3)C(=O)N2)CC1` (stereo partly drawn) [Compound 879, 1-(4-{2-[2-(4-ethyl-cyclohexyl)-4-oxo-1,3,8-triaza-spiro[4.5]dec-1-ene-8-sulfonyl]-ethyl}-3-methyl-phenyl)-5-methyl-imidazolidine-2,4-dione] here?
Answer: Its value is 70%.

Question: For `CCCCC1CCC(C2=NC3(CCN(S(=O)(=O)CCc4ccc(N5C(=O)CNC5=O)cc4C)CC3)C(=O)N2)CC1` (stereo not drawn) [Compound 880, 3-(4-{2-[2-(4-Butyl-cyclohexyl)-4-oxo-1,3,8-triaza-spiro[4.5]dec-1-ene-8-sulfonyl]-ethyl}-3-methyl-phenyl)-imidazolidine-2,4-dione], which “cAMP production activity (%)” value is on record?
Answer: Its value is 68%.

Question: How did the “cAMP production activity (%)” value turn out when `Cc1cc(N2C(=O)CNC2=O)ccc1CCS(=O)(=O)N1CCC2(CC1)N=C(C1CCC(C)CC1)NC2=O` (stereo not drawn) [Compound 881, 3-(3-methyl-4-{2-[2-(4-methyl-cyclohexyl)-4-oxo-1,3,8-triaza-spiro[4.5]dec-1-ene-8-sulfonyl]-ethyl}-phenyl)-imidazolidine-2,4-dione] was run?
Answer: The value was 48%.

Question: For `Cc1cc(N2C(=O)CNC2=O)ccc1CCS(=O)(=O)N1CCC2(CC1)N=C(C1CCC(C(C)C)CC1)NC2=O` (stereo not drawn) [Compound 882, 3-(4-{2-[2-(4-isopropyl-cyclohexyl)-4-oxo-1,3,8-triaza-spiro[4.5]dec-1-ene-8-sulfonyl]-ethyl}-3-methyl-phenyl)-imidazolidine-2,4-dione], which “cAMP production activity (%)” value is on record?
Answer: The value was 70%.

Question: Which “cAMP production activity (%)” value does the source give for `Cc1cc(N2C(=O)CNC2=O)cc(C)c1CCS(=O)(=O)N1CCC2(CC1)N=C(C1CCC(C)CC1)NC2=O` (stereo not drawn) [Compound 883, 3-(3,5-dimethyl-4-{2-[2-(4-methyl-cyclohexyl)-4-oxo-1,3,8-triaza-spiro[4.5]dec-1-ene-8-sulfonyl]-ethyl}-phenyl)-imidazolidine-2,4-dione] here?
Answer: Its value is 56%.

Question: How did the “cAMP production activity (%)” value turn out when `Cc1cc(N2C(=O)CNC2=O)cc(C)c1CCS(=O)(=O)N1CCC2(CC1)N=C(C1CCC(C(C)C)CC1)NC2=O` (stereo not drawn) [Compound 884, 3-(4-{2-[2-(4-isopropyl-cyclohexyl)-4-oxo-1,3,8-triaza-spiro[4.5]dec-1-ene-8-sulfonyl]-ethyl}-3,5-dimethyl-phenyl)-imidazolidine-2,4-dione] was run?
Answer: Its value is 59%.

Question: Which “cAMP production activity (%)” value does the source give for `Cc1cc(N2C(=O)N(C)C(C)(C)C2=O)cc(C)c1CCS(=O)(=O)N1CCC2(CC1)N=C(C1CCC(C)CC1)NC2=O` (stereo not drawn) [Compound 885, 3-(3,5-dimethyl-4-{2-[2-(4-methyl-cyclohexyl)-4-oxo-1,3,8-triaza-spiro[4.5]dec-1-ene-8-sulfonyl]-ethyl}-phenyl)-1,5,5-trimethyl-imidazolidine-2,4-dione] here?
Answer: Its value is 58%.

Question: `Cc1cc(NC(=O)[C@@H](N)CO)ccc1CCS(=O)(=O)N1CCC2(CC1)N=C(c1cccc(C(F)(F)F)c1)NC2=O` [Compound 886, (S)-2-amino-3-hydroxy-N-(3-methyl-4-{2-[4-oxo-2-(3-trifluoromethyl-phenyl)-1,3,8-triaza-spiro[4.5]dec-1-ene-8-sulfonyl]-ethyl}-phenyl)-propionamide] was tested. Which “cAMP production activity (%)” value did it give?
Answer: Its value is 68%.
